From US5256824A, “Substituted-amine compound and a process for the preparation thereof” (Fujisawa Pharmaceutical Co., Ltd., priority 1990, dated 1993)

Tests used:
Na channel = Na channel blocking activity (local anesthetic effect on the corneal blink reflex); type: in vivo, Male Japanese white rabbits; conditions: 1.0% solution in saline, 50 μl drops to one eye
Experimental: Test on Na channel blocking activity
Male Japanese white rabbits weighing 2.0-3.0 kg were to evaluate the local anesthetic effect of test compound on the corneal blink reflex. Corneal reflexes were elicited by pressing a flexible monofilament (rabbit whisker) against the cornea. 1.0% Test compound solution in saline was applied to one eye (50 μl drops) and the contralateral eye received as a control. Corneal blink responses were scored at 5, and 15 minutes after test compound application.
Local anesthetic activities were expressed as an inhibition percent of blink responses.

[1] = test system: Urinary Bladder Contractions Induced by Water Filling; experiment: Inhibition of Urinary Bladder Contractions Induced by Water Filling in Rats; type: in vivo, Male Sprague-Dawly rats; conditions: Rattus norvegicus; intravenous, anesthetized rats (urethane), hyperactive bladder by water filling
Excerpt: Test on Inhibition of Urinary Bladder Contractions Induced by Water Filling in Rats
Male Sprague-Dawly rats, weighing 240-450 g, were anesthetized with urethane 1.0 g/kg s.c. The bladder was exposed through a midline incision in the abdomen for the recording of pressure within the bladder as follows; a balloon attached to one end of a stainless steel tube (O.D., 1.2 mm, 5 cm in length) was inserted into the bladder through a small incision in the bladder dome. The other end of the tube was connected to a pressure-transducer. The ureters were ligated and cut, and the proximal cut end was cannulated with polyethylene tubing and the urine was led outside.
Hyperactive urinary bladder (hyperactive contractions of the detrusor muscle) was induced by water filling of the bladder. Therefore, the balloon in the bladder was filled with water of a volume which caused a resting pressure of about 10 mmHg. Systemic blood pressure and heart rate were monitored from the common carotid artery.
When the contractile responses to water filling became constant, test compounds were administered intravenously.

Row | SMILES | Inhibition % of blink responses (Na channel; 5 minutes after application) [%] | Inhibition % of blink responses (Na channel; 15 minutes after application) [%] | ED30 [1] [mg/kg]
1 | CC(C)(C)NC1C=CC(c2ccccc2)(c2ccccc2)C1.Cl (single isomer, unassigned; (-)) [(-)-N-t-butyl-4,4-diphenyl-2-cyclopentenylamine hydrochloride] | 100 | 100 | –
2 | CC(C)(C)NC1C=CC(c2ccccc2)(c2ccccc2)C1.CS(=O)(=O)O (single isomer, unassigned; (-)) [(-)-N-t-butyl-4,4-diphenyl-2-cyclopentenylamine methanesulfonate] | – | – | 0.18
